Data from patent US20100172848A1, “SKIN AND SURFACE DISINFECTANT COMPOSITIONS CONTAINING BOTANICALS” (The Trustees Of Columbia University In the City of New York, priority 2008, published 2010).

Key:
[1] = system: S. aureus; test: Five-minute kill test of solutions in 10% SDA40-B alcohol and water, colony counts on TSA; format: cell-based; conditions: 5 minutes contact
Experimental: Various concentrations of basil oil and acetic, lactic, and citric acids, separately and in combination, were prepared in 10 percent SDA40-B alcohol and water, and adjusted to 100 percent. Except for citric acid, which was added by weight, all other ingredients were measured by volume. 0.9 ml of each solution were dispensed in sterile culture tubes, in triplicate, and 0.1 ml of a 10^7 cfu/ml S. aureus culture was added to the tubes, vortexed, and then, five minutes later, 9.0 ml of drug inactivating medium was added to each tube. Serial dilutions were made with the drug inactivating medium. 0.5 ml of the dilutions were plated on trypticase soy agar (“TSA”) plates. As a control, water containing 10 percent SDA40-B alcohol was processed in parallel. The plates were incubated at 37° C. for 24-48 hours and then the colony counts were determined.
The same methodology was used to test the antimicrobial activity of combinations of citric acid with other essential oils.
Next, the same general protocol was used to test the efficacy of basil, cinammon and citronella oils against a variety of organisms, namely E. coli, P. aeruginosa, MRSA, C. albicans, and S. aureus.
Various concentrations of cinnamon leaf oil and citric acid were dissolved in SDA 40-B alcohol (10%) and water, and adjusted to 100 percent. Except for citric acid, which was added by weight, all other ingredients were measured by volume. 0.9 ml of each solution were dispensed in sterile culture tubes, in triplicate, and 0.1 ml of 10^7 cfu/ml of S. aureus culture was added to the tubes, vortexed, and then, five minutes later, 9.0 ml of drug inactivating medium was added to each tube. Serial dilutions were made with the drug inactivating medium. 0.5 ml of the dilutions were plated on trypticase soy agar (“TSA”) plates. As a control, water containing 10% percent SDA40-B alcohol was processed in parallel. The plates were incubated at 37° C. for 24-48 hours and then the colony counts were determined.
The following experiments were performed to evaluate the antibacterial activity of LG and Citric acid dissolved in alcohol, where the test organism used was S. aureus. Various amounts of LG oil and Citric acid were dissolved in SDA40-B alcohol, and then water was added to result in the EO concentration shown and an alcohol concentration of 10 percent. 0.9 ml of each solution were dispensed in sterile culture tubes, in triplicate, and 0.1 ml of a 10^7 cfulml S. aureus culture was added to the tubes, vortexed, and then, five minutes later, 9.0 ml of drug inactivating medium was added to each tube. Serial dilutions were made with drug inactivating medium. 0.5 ml of the dilutions were plated on trypticase soy agar (“TSA”) plates. As a control, water containing 10 percent SDA40-B alcohol was processed in parallel. The plates were incubated at 37° C. for 24-48 hours and then the colony counts were determined.

[2] = system: S. aureus; test: Soap rapid antimicrobial activity (30 second kill) with bovine serum; format: cell-based
Experimental: The antimicrobial activity of the above soap was tested in parallel with commercial Softsoap® containing triclosan (Softsoap Antibacterial; Colgate-Palmolive). 0.1 ml of a 10^8 cfu/ml culture of each microbe tested was mixed with 0.1 ml of bovine serum and placed in a sterile culture tube. 0.8 ml of the test soap formulation was added to the tube and vortexed for 30 seconds. Then 9.0 ml DNB was added to neutralize the activity of the soap. The tube was then vortexed and serially diluted with DNB. 0.5 ml of the diluted solution was plated on TSA plates. The same soap base lacking cinnamon oil, citric acid, and orange oil, with phosphate buffered saline mixed with the culture, were used as the controls.
The antimicrobial activity of the above soap was tested in parallel with commercial Dial® Antibacterial Hand Soap) containing triclosan. 0.1 ml of a 10^8 cfu/ml culture of each microbe tested was mixed with 0.1 ml of bovine serum and placed in a sterile culture tube. 0.8 ml of the test soap formulation was added to the tube and vortexed for 30 seconds. Then 9.0 ml DNB was added to neutralize the activity of the soap. The tube was then vortexed and serially diluted with DNB. 0.5 ml of the diluted solution was plated on TSA plates. […]
(§1) A mixture of 0.1 ml of 10^7 cfu/ml of S. aureus culture and 0.1 ml of bovine serum were placed in a sterile culture tube. […] 0.5 ml of the diluted solution was plated on trypticase soy agar plates, incubated at 37° C. for 24-48 hrs and the colony counts were determined. […]
as §1
A mixture of 0.1 ml of 10^8 cfu/ml of S. aureus culture and 0.1 ml of bovine serum were placed in a sterile culture tube. […] 0.5 ml of the diluted solution was plated on trypticase soy agar plates, incubated at 37° C. for 24-48 hrs and the colony counts were determined.

[3] = 10 percent SDA40-B alcohol, control counts 1 × 10^6 to 5 × 10^6 (Table 67)
[4] = 10 percent SDA40-B alcohol, control counts 1 × 10^6 to 5 × 10^6 (Table 66)
[5] = SDA 40-B alcohol (10%) and water (Table 71)

## CC(C)=CCCC(C)=CCCC(C)=CCO [0.25% Farnesol, Farnesol]
[1]; [3]
  Log 10 reduction: 0 log10

## CC(=O)O [1% Acetic acid (AA), Acetic acid]
[1]; [4]
  Log 10 reduction: 0.2 log10

## O=C(O)CC(O)(CC(=O)O)C(=O)O [1% Citric Acid (CA), Citric Acid]
[1]; [4]
  Log 10 reduction: 0.1 log10
[1]; [3]
  Log 10 reduction: 0.1 log10
[1]; 10 percent alcohol, control counts 1 × 10^6 to 5 × 10^6 (Table 79)
  Log10 reduction from control: 0.3 log10
[1]; SDA 40-B alcohol (10%) and water (Table 71), listed as Citric Acid 1.0%
  Log 10 reduction: 0.30 log10

## CC(O)C(=O)O (centres unmarked) [1% Lactic acid (LA), Lactic acid]
[1]; [4]
  Log 10 reduction: 2.3 log10

## CCCCCCCCC(O)CO (centres unmarked) [1,2 decanediol (0.3%)]
[2]; alkanediol 0.3% w/w where present, control counts 2 × 10^8-5 × 10^8
  Log10 reduction from control: 0.6 log10

## CCCCCCCCC(O)CO (centres unmarked) [1,2 decanediol(0.5%)]
[2]; alkanediol 0.5% w/w where present, soap pH 4.5-4.6, control counts 2 × 10^8-5 × 10^8
  Log10 reduction from control: 1.4 log10

## O=C(O)CC(O)(CC(=O)O)C(=O)O [1.0 citric acid]
[2]; compounds (% w/w) in soft soap lacking triclosan, PBS control counts 7 × 10^7-1 × 10^8
  Log10 reduction from control: 1.3 log10

## O=C(O)CC(O)(CC(=O)O)C(=O)O [Citric Acid 0.5%, Citric Acid]
[1]; [5]
  Log 10 reduction: 0.20 log10

## O=C(O)CC(O)(CC(=O)O)C(=O)O [Citric Acid 0.25%, Citric Acid]
[1]; [5]
  Log 10 reduction: 0.08 log10

## O=C(O)CC(O)(CC(=O)O)C(=O)O [Citric Acid 0.125%, Citric Acid]
[1]; [5]
  Log 10 reduction: 0.02 log10

## O=C(O)CC(O)(CC(=O)O)C(=O)O [Citric Acid 2%, Citric Acid]
[1]; [5]
  Log 10 reduction: 0.32 log10
